Reference: patent publication US20090192185A1, “MEDICAL PRODUCT” (Boehringer Ingelheim International GmbH, priority 2003, published 2009)

How the values were obtained:
[1] = bronchodilator; cited from earlier work
[2] = Stability tests of FPD at 40° C. and 75% Rh (tests S1-S5, HBS1-HBS3), out of […]; assay type: physicochemical; details: conclusion of the tests

Row | Compound | Duration of action [1] | Sensitivity to moisture [2]
1 | C[N+]1(C)[C@@H]2C[C@@H](OC(=O)C(O)(c3cccs3)c3cccs3)C[C@H]1[C@@H]1O[C@@H]12 [tiotropium bromide] | up to 24 hours | –
2 | C[N+]1(C)[C@@H]2C[C@@H](OC(=O)C(O)(c3cccs3)c3cccs3)C[C@H]1[C@@H]1O[C@@H]12 [tiotropium] | – | extremely sensitive to moisture
